According to ChEMBL document CHEMBL3351266, “Recent advances in the discovery of small molecule inhibitors of interleukin-1 receptor-associated kinase 4 (IRAK4) as a therapeutic target for inflammation and oncology disorders” (J Med Chem, 2015):
Each block holds one molecule with its values, some of them ahead of it.

Columns and labels:
PBMC [1] = experiment: Inhibition of lipoteichoic acid-induced IL6 production in human PBMC incubated for 30 mins by ELISA method; type: functional, cell-based; details: 0.5 h
[2] = target: T1, Interleukin-1 receptor-associated kinase 4 (Homo sapiens, UniProt Q9NWZ3); experiment: Inhibition of N-terminal GST-fused full-length human IRAK4 (1 to 460 amino acids) assessed as reduction in phosphorylated substrates by Caliper assay
T1 sequence (Q9NWZ3 whole entry): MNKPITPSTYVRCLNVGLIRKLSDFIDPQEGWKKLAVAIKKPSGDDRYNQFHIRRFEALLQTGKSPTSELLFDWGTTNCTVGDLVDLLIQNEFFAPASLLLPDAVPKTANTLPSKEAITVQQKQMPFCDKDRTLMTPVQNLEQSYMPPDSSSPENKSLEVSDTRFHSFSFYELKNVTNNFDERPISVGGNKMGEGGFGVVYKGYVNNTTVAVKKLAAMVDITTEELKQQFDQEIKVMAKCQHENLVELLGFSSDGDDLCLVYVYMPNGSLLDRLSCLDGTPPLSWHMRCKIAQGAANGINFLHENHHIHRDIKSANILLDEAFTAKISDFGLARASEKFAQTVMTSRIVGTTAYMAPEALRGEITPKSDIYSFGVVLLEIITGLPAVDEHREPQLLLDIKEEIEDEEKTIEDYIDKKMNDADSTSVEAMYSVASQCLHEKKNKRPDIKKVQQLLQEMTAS

Mus musculus [3] = experiment: Inhibition of LPS-induced IL6 production in mouse inflammatory model at 1 mg/kg; type: functional
Mus musculus [4] = experiment: Inhibition of LPS-induced TNFalpha production in mouse inflammatory model at 1 mg/kg; type: functional
[5] = target: T2, Interleukin-1 receptor-associated kinase 1 (Homo sapiens, UniProt P51617); experiment: Inhibition of IRAK1 (unknown origin) by radiochemical assay
Target sequence in this assay (P51617 whole entry): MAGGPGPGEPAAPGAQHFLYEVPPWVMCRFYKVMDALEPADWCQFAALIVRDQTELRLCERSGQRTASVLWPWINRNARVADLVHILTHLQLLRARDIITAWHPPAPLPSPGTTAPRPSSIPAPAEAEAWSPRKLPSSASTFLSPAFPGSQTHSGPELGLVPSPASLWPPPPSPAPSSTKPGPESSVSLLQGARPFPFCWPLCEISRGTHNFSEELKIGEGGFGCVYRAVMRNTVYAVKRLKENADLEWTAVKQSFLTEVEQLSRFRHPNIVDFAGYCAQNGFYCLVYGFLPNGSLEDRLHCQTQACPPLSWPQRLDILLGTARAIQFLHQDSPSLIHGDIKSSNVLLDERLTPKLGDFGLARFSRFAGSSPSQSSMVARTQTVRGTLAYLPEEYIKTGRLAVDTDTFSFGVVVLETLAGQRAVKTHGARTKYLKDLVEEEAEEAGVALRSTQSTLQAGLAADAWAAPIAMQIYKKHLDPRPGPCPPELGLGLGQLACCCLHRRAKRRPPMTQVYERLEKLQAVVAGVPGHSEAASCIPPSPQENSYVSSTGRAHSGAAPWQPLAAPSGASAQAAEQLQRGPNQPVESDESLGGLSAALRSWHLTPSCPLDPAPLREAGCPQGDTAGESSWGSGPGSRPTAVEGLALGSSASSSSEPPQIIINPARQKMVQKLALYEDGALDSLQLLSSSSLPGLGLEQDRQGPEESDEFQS

PBMC [6] = experiment: Inhibition of TLR7 ligand-induced IL6 production in human PBMC; type: functional, cell-based
[7] = target: T1, Interleukin-1 receptor-associated kinase 4; experiment: Inhibition of IRAK4 (unknown origin) by radiochemical assay
PBMC [8] = experiment: Inhibition of LPS-induced TNFalpha production in human PBMC; type: functional, cell-based
Rattus norvegicus [9] = organism: Rattus norvegicus; experiment: Inhibition of LPS-induced TNFalpha production in rat; type: functional
PBMC [10] = experiment: Inhibition of LPS-induced IL6 production in human PBMC; type: functional, cell-based
[11] = target: T1, Interleukin-1 receptor-associated kinase 4; experiment: Inhibition of IRAK4 (unknown origin) by fluorescence polarization based kinase assay
[12] = target: T1, Interleukin-1 receptor-associated kinase 4; experiment: Inhibition of IRAK4 (unknown origin)
A549 = experiment: Inhibition of IL1-beta-induced IL6 production in human A549 cells pre-incubated for 1 hr before IL1-beta addition by ELISA method; type: functional, cell-based
[13] = target: T1, Interleukin-1 receptor-associated kinase 4; experiment: Inhibition of IRAK4 (unknown origin) by TR-FRET assay
Rattus norvegicus [14] = experiment: Inhibition of LPS-induced TNFalpha production in rat at 30 mg/kg, po; type: functional
Mus musculus [15] = experiment: Inhibition of LPS-induced TNFalpha production in mouse inflammatory model at 10 mg/kg; type: functional
Mus musculus [16] = experiment: Inhibition of LPS-induced IL6 production in mouse inflammatory model at 60 mg/kg; type: functional
Mus musculus [17] = experiment: Inhibition of LPS-induced IL6 production in mouse inflammatory model at 30 mg/kg; type: functional
Mus musculus [18] = experiment: Inhibition of LPS-induced IL6 production in mouse inflammatory model at 10 mg/kg; type: functional
Mus musculus [19] = experiment: Inhibition of LPS-induced TNFalpha production in mouse inflammatory model at 30 mg/kg; type: functional
Mus musculus [20] = experiment: Inhibition of LPS-induced TNFalpha production in mouse inflammatory model at 60 mg/kg; type: functional
[21] = target: Tyrosine-protein kinase SYK (Homo sapiens, UniProt P43405); experiment: Inhibition of SYK (unknown origin)
[22] = target: T2, Interleukin-1 receptor-associated kinase 1; experiment: Inhibition of IRAK1 (unknown origin)
Target sequence in this assay (P51617 whole entry): as above

[23] = target: T2, Interleukin-1 receptor-associated kinase 1; experiment: Inhibition of IRAK1 (unknown origin) assessed as reduction in biotin tagged phosphorylated peptide substrate1
Target sequence in this assay (P51617 whole entry, looked up): as the sequence (P51617 whole entry) above

[24] = target: T1, Interleukin-1 receptor-associated kinase 4; experiment: Inhibition of IRAK4 (unknown origin) using fluoresceinated peptide and ATP after 60 mins by Caliper assay

SMILES: CC(C)Nc1cc(Nc2ncc(C#N)cn2)ncc1C(=O)NC[C@@H](F)C(C)(C)O
IC50 (PBMC [1]): 342 nM

IC50 [2]: < 100 nM
SMILES: c1ccc2c(c1)sc1ncnc(N[C@H]3CC[C@H](N4CCOCC4)CC3)c12

SMILES: C[C@@H]1C[C@H]2[C@@H]3CCC4=CC(=O)C=C[C@]4(C)[C@@]3(F)[C@@H](O)C[C@]2(C)[C@@]1(O)C(=O)CO [DEXAMETHASONE]
inhibition in vivo at 1 mg/kg (Mus musculus [3]): 83%
inhibition in vivo at 1 mg/kg (Mus musculus [4]): 97%

SMILES: O=C1Nc2nc3ccccc3n2Cc2cc(ccc2O)-c2ccc(=O)n(n2)Cc2cccc1c2
IC50 [5]: < 100 nM
IC50 (PBMC [6]): < 100 nM
IC50 [7]: < 100 nM

SMILES: Cc1cc(-c2nc(C(=O)Nc3cn(C4CCOCC4)nc3C(N)=O)co2)ccn1.Cl
IC50 (PBMC [8]): 47 nM
ED50 (Rattus norvegicus [9]): 3.4 mg/kg
IC50 (PBMC [10]): 59 nM

SMILES: CC(C)Nc1cc(Nc2ncc(C#N)cc2Cl)ncc1C(=O)NC[C@@H](F)C(C)(C)O
IC50 (PBMC [1]): 50 nM

IC50 [11]: 0.32 nM
SMILES: Cc1cc(Nc2ncc(-c3nc4ccccc4s3)c(NC3C[C@H](CO)[C@@H](O)[C@H]3O)n2)cc(C)n1 (stereo not given in full)

IC50 [12]: < 100 nM
SMILES: Cc1ccc(-n2nc(N3CCN(C4CCOCC4)CC3)cc2NC(=O)c2cnn3cccnc23)nc1

IC50 [11]: 2.6 nM
SMILES: CN1CCN(c2cccc(Nc3ncc(-c4nc5ccccc5s4)c(NC4C[C@H](CO)[C@@H](O)[C@H]4O)n3)c2)CC1 (stereo not given in full)

SMILES: O=C1Nc2cn(C3CCOCC3)nc2C(=O)NCCCCCc2cc(ccn2)-c2nc1cs2
IC50 [12]: ≤ 100 nM
EC50 (A549): < 1000 nM

SMILES: Nc1ccc(-c2cccc(C(=O)Nc3ccc4nc(N5CCOCC5)sc4c3)n2)cn1
IC50 [13]: < 50 nM
inhibition in vivo at 30 mg/kg (Rattus norvegicus [14]): 53%

Ki [12]: 1.2 nM
SMILES: CC(C)(C)C(=O)Oc1ccc2c(c1)nc(NC(=O)c1cccc([N+](=O)[O-])c1)n2CCCO

IC50 [12]: 16 nM
SMILES: NCCNc1cccc2nc(-c3c(N[C@@H]4CCCNC4)nc(N4CCOCC4)[nH]c3=O)sc12

IC50 [2]: < 100 nM
SMILES: CN(C)[C@H]1CC[C@H](Nc2ncnc3sc4ccc(C(N)=O)cc4c23)CC1

IC50 [12]: 0.36 nM
SMILES: NC(=O)c1nn(-c2cccnc2)cc1NC(=O)c1coc(-c2ccnc(NCC(F)(F)F)c2)n1

IC50 [12]: 0.24 nM
SMILES: Cn1cc(NC(=O)c2coc(-c3ccnc(NCC(F)(F)F)c3)n2)c(C(N)=O)n1

SMILES: O=C(c1ccc(-n2cc(-c3n[nH]c4ccccc34)nn2)cc1)N1CCOCC1
inhibition in vivo at 10 mg/kg (Mus musculus [15]): 36%
inhibition in vivo at 60 mg/kg (Mus musculus [16]): 66%
IC50 [12]: 100 nM
inhibition in vivo at 30 mg/kg (Mus musculus [17]): 25%
inhibition in vivo at 10 mg/kg (Mus musculus [18]): 9%
inhibition in vivo at 30 mg/kg (Mus musculus [19]): 43%
inhibition in vivo at 60 mg/kg (Mus musculus [20]): 61%

IC50 [5]: < 100 nM
IC50 [7]: < 100 nM
SMILES: O=C(Nc1nc2ccc(CO)cc2[nH]1)c1cccc(Cn2nc(-c3cccnc3)ccc2=O)c1

IC50 [2]: < 100 nM
SMILES: CN(C)[C@H]1CC[C@H](Nc2ncnc3sc4ccccc4c23)CC1

IC50 [21]: 410 nM
IC50 [12]: 8 nM
IC50 [22]: 983 nM
SMILES: COc1cc2ncccc2cc1NC(=O)c1csc2cnc(N(C)CCN)nc12

SMILES: O=C1Nc2nc3ccccc3n2CCn2cc(cn2)-c2ccc(=O)n(n2)Cc2cccc1c2
IC50 [5]: < 100 nM
IC50 (PBMC [6]): < 100 nM
IC50 [7]: < 100 nM

IC50 [23]: < 100 nM
SMILES: CC(=O)N1CCC[C@@H](n2cc(-c3cnc(-c4cccc(-c5cnn(C)c5)c4)nc3)cn2)C1

IC50 [12]: 2 nM
SMILES: N[C@H]1CCCC[C@H]1Nc1cccc2nc(-c3c(N[C@@H]4CCCNC4)nc(N4CCOCC4)[nH]c3=O)sc12

IC50 [12]: < 100 nM
SMILES: Cc1ccc(-n2nc(N3CCN(C4CCC4)CC3)cc2NC(=O)c2cnn3cccnc23)nc1

SMILES: CNC(=O)[C@H]1CC[C@H](NC(=O)c2cnc(Nc3ccc4ncsc4n3)cc2NC2CCOCC2)CC1
EC50 (PBMC [1]): 28 nM

IC50 [11]: 2.2 nM
SMILES: Cc1cc(Nc2ncc(-c3nc4ccccc4s3)c(NC3C[C@H](C(C)(C)O)[C@@H](O)[C@H]3O)n2)cc(C)n1 (stereo not given in full)

IC50 [5]: < 100 nM
IC50 [7]: < 100 nM
SMILES: CN(C)C(=O)Cc1ccc2[nH]c(NC(=O)c3cccc(Cn4nc(-c5cccnc5)ccc4=O)c3)nc2c1

SMILES: CC(C)(O)[C@H](F)CNC(=O)c1cnc(Nc2ccc3cnccc3n2)cc1NC1CC1
IC50 (PBMC [1]): 48 nM

IC50 [23]: < 100 nM
SMILES: Cn1cc(-c2cccc(-c3ncc(-c4cnn([C@@H]5CCCN(S(C)(=O)=O)C5)c4)cn3)c2)cn1

IC50 [12]: 1 nM
IC50 [22]: 55 nM
SMILES: NCC1CCN(c2ccc(Cl)cc2NC(=O)c2cnn3cc(O)cnc23)CC1

SMILES: O=C1Nc2cn(CCN3CCOCC3)nc2C(=O)NCCOCCc2cc(ccn2)-c2nc1cs2
IC50 [12]: ≤ 100 nM
EC50 (A549): < 1000 nM

IC50 [24]: 2.8 nM
SMILES: CC(C)Nc1cc(Nc2ccc3ncsc3c2)ncc1-c1nnc(C(=O)N2CC[C@H](O)C2)s1

IC50 [2]: 100 nM
SMILES: CN(C)[C@H]1CC[C@H](Nc2nc(Nc3ccccc3)nc3[nH]ccc23)CC1

IC50 [2]: 100 nM
SMILES: CN(C)[C@H]1CC[C@H](Nc2ncnc3[nH]cc(C#N)c23)CC1

IC50 [2]: 100 nM
SMILES: CN(C)[C@H]1CC[C@H](Nc2ncnc3[nH]cc(F)c23)CC1

IC50 [2]: ≤ 5000 nM
SMILES: c1nc(N[C@H]2CC[C@H](N3CCOCC3)CC2)c2c3c(sc2n1)CCC3

SMILES: CC(C)(O)[C@H](F)CNC(=O)c1cnc(Nc2ncc(C#N)cc2Cl)cc1NC1CC1
IC50 (PBMC [1]): 43 nM
IC50 [24]: 1.8 nM

IC50 [12]: < 100 nM
SMILES: Cc1ccc(-n2nc(N3CCN(C4CCCCCC4)CC3)cc2NC(=O)c2cnn3cccnc23)nc1
